{"source": "patent US11534458B2", "about": "“Phosphorus-sparing nutritional composition” (Albion Laboratories, Inc., priority 2013, dated 2022)", "origin": "cited, not measured here", "molecules": {"B1": {"name": "Recombinant A. niger phytase: recombinant Aspergillus niger phytase (microbial 3-phytase enzyme) of literature studies (protein, UniProt P34752 24-467, looked up)", "Phytase A": "ASRNQSSCDTVDQGYQCFSETSHLWGQYAPFFSLANESVISPEVPAGCRVTFAQVLSRHGARYPTDSKGKKYSALIEEIQQNATTFDGKYAFLKTYNYSLGADDLTPFGEQELVNSGIKFYQRYESLTRNIVPFIRSSGSSRVIASGKKFIEGFQSTKLKDPRAQPGQSSPKIDVVISEASSSNNTLDPGTCTVFEDSELADTVEANFTATFVPSIRQRLENDLSGVTLTDTEVTYLMDMCSFDTISTSTVDTKLSPFCDLFTHDEWINYDYLQSLKKYYGHGAGNPLGPTQGVGYANELIARLTHSPVHDDTSSNHTLDSSPATFPLNSTLYADFSHDNGIISILFALGLYNGTKPLSTTTVENITQTDGFSSAWTVPFASRLYVEMMQCQAEQEPLVRVLVNDRVVPLHGCPVDALGRCTRDSFVRGLSFARSGGDWAECFA"}}, "key": {"healthy young women": {"system": "healthy young women", "conditions": "for iron absorption increased by a factor of: phytase 10 mg (190 FTU), maize porridge meal"}, "[1]": {"conditions": "phytate-rich diet"}}, "note": "Like-named read-outs stand apart in the source and are kept apart here.", "data": [{"molecule": "O=C1O[C@H]([C@@H](O)CO)C(O)=C1O", "note": "[ascorbic acid, reference compound]", "values": [{"measurement": "effect on iron absorption", "setting": "healthy young women; ascorbic acid alone, iron from NaFeEDTA", "result": "little effect"}, {"measurement": "iron absorption", "setting": "[1]", "result": "markedly improved"}]}, {"molecule": "[Ca+2]", "note": "[calcium]", "values": [{"measurement": "decrease of phosphorus absorption", "setting": "for each 500 mg (12.5 mmol) supplemental calcium ingested", "result": 5.4, "unit": "mmol"}, {"measurement": "decrease of phosphorus absorption", "setting": "for every 500 mg elemental calcium equivalent ingested", "result": 166, "unit": "mg"}]}, {"molecule": "B1", "values": [{"measurement": "iron absorption increased by a factor of", "setting": "healthy young women; iron given as FeSO4", "result": 1.71}, {"measurement": "iron absorption increased by a factor of", "setting": "healthy young women; iron given as NaFeEDTA", "result": 1.23}]}]}
